{"source": "patent US10946053B2", "about": "“Composition containing mixed extract of mulberry and Poria cocos bark for preventing, improving or treating neurodegenerative disorders” (NeuroBo Pharmaceuticals, Inc., priority 2014, dated 2021)", "key": {"[1]": {"tested_on": "Aβ Infusion Model (Aβ42)", "test": "Y-maze test, Aβ42 administration model", "type": "in vivo, ICR mice", "details": "extracts 100 mg/kg, Donepezil 1 mg/kg", "protocol": "(§1) Six-week-old ICR mice were used in the experiment. The animals were anesthetized, fixed in a stereotaxic apparatus (Stoelting) and injected with 3 μl of vehicle (artificial CSF) or Aβ42 for 6 minutes using a Hamilton micro syringe (fitted with a 26-gauge needle).\n(§2) Animals treated with Aβ42 were randomly divided into experimental groups. From 2 days after administration of Aβ42, the experimental drug and the positive control drug were administered once a day for 11 days.\n(§3) The lyophilized drug, comparative drug and control drug were suspended in 3% HPMC aqueous solution, and all the drugs were prepared on the day of the experiment.\n(§4) The Y-maze experiment was conducted to investigate the effect of short-term memory. The animals were placed on one arm of the Y-maze and allowed to move freely for 8 minutes. Spontaneous alternation and total number of entries were measured. When the animals were consecutively entered into three arms, they were defined as alternation entry, and the ratio was calculated by the following equation 1. Spontaneous alternation ratio (%)=[(number of changes)/(total number of arm entry−2)]×100 [Equation 1]"}, "[2]": {"tested_on": "Scopolamine Induced Memory Impairment Model", "test": "Passive avoidance task, scopolamine induced memory impairment model", "type": "in vivo, ICR mice", "details": "scopolamine 1 mg/kg i.p., oral, extracts 100 mg/kg, Donepezil 1 mg/kg", "protocol": "(§5) Six-week-old ICR mice were used for the experiment and each experimental group consisted of 8 animals.\n(§6) Normal animals were injected with the same amount of physiological saline. Behavioral studies were performed after 30 minutes of scopolamine administration.\nas §3\nPassive avoidance experiments were performed in two independently separated bright and dark square boxes. Bright areas (20×20×20 cm) were illuminated with 50 W incandescent lamps. Light and dark areas (20×20×20 cm) were spaced 1 cm apart and 2 mm stainless steel rods were installed.\nIn the habituation phase, the two sections were separated by a guillotine door (5×5 cm), and the guillotine door was opened after 30 seconds after placing the experimental animals in the light section. The animals were allowed to freely navigate. When they reached the dark area, the guillotine door was closed and the animals were taken out after 3 seconds.\n(§7) Acquisition trials were conducted 24 hours later. […] The time that the animals entered the dark zone was measured.\n(§8) After performing the acquisition trials and giving a 24-hour rest period, the experimental animals were placed in a bright area for measuring the retention trial and the time until entering the dark area was measured. […]"}, "[3]": {"tested_on": "beta-nerve growth factor", "test": "NGF level measurement in nerve cell line (ELISA)", "type": "cell-based, human", "details": "extracts 10 μg/ml, Donepezil 10 μM", "protocol": "NGF levels were measured in order to determine the mechanism of cognitive improvement of the herbal mixed extracts. […] NGF levels were measured using a beta-nerve growth factor human enzyme-linked immunosorbent assay (ELISA) KIT purchased from Abcam."}, "[4]": {"tested_on": "NeuN, a neural cell marker", "test": "Immunohistochemical staining with NeuN in hippocampus, Aβ infusion model (FIG. 1)", "type": "in vivo, ICR mice", "protocol": "as §1, §2\nFor immunohistochemical staining, the Aβ infusion animal described in Experimental Example 1-1 was perfused with 1×PBS (phosphate buffered saline), fixed with 4% paraformaldehyde, and brain was extracted. This was fixed in the same solution for one day and stored in a 30% sucrose solution and the solution was changed every two days until frozen at […] After that, brain tissue was frozen sufficiently at −20° C. by dropping OCT (optimal cutting temperature) compound in a cryostat, and then made into a 30 μm-thick section, and stored at 4° C. in a preservative solution. Immunohistochemical staining was performed with the hippocampus portion. […]"}, "[5]": {"tested_on": "Aβ Infusion Model (Aβ42)", "test": "Passive avoidance task, Aβ42 administration model", "type": "in vivo, ICR mice", "details": "Aβ42 injected, once a day for 11 days, extracts 100 mg/kg, Donepezil 1 mg/kg", "protocol": "as §1, §2, §3\nPassive avoidance experiments were performed in two independently separated bright and dark square boxes. Bright areas (20×20×20 cm) were illuminated with 50 W incandescent lamps. Light and dark areas (20×20×20 cm) were spaced 1 cm apart and 2 mm stainless steel rods were installed. […]\nas §7, §8"}, "[6]": {"tested_on": "Scopolamine Induced Memory Impairment Model", "test": "Novel object recognition (NOR) task, scopolamine model", "type": "in vivo, ICR mice", "details": "extracts 100 mg/kg, Donepezil 1 mg/kg, test session", "protocol": "as §5, §6, §3\n(§9) Inside a black box of 45 cm width, 45 cm length, 50 cm height, two plastic objects of the same size but different shapes were placed. The experimental animals were allowed to move freely for 8 minutes and the time spent on each object was measured (training session) 24 hours later, the experimental animals were placed in a box with one familiar object and one new object in the training session and the time spent in each object was measured (test session). The recorded values were calculated using the following equation (2), which is expressed as a recognition result of a new object. Recognition rate of new objects (%)=Time spent on new objects/(Time spent on new objects+Time spent on experienced objects)×100 [Equation 2]"}, "[7]": {"tested_on": "Scopolamine Induced Memory Impairment Model", "test": "Y-maze test, scopolamine model", "type": "in vivo, ICR mice", "details": "extracts 100 mg/kg, Donepezil 1 mg/kg", "protocol": "as §5, §6, §3, §4"}, "[8]": {"tested_on": "Aβ Infusion Model (Aβ42)", "test": "Novel object recognition (NOR) task, Aβ42 administration model", "type": "in vivo, ICR mice", "details": "extracts 100 mg/kg, Donepezil 1 mg/kg", "protocol": "as §3, §9"}, "[9]": {"tested_on": "human Tau [pS199]", "test": "Phosphorylated tau in neuronal cell line (ELISA), Aβ42 treated", "type": "cell-based", "details": "Donepezil 10 μM", "protocol": "Phosphorylated tau levels were measured in order to confirm the inhibitory effect of crude herbal extracts on tau hyper-phosphorylation. […] The phosphorylated tau was measured using human Tau [pS199] enzyme-linked immunosorbent assay (ELISA) KIT purchased from Invitrogen."}}, "data": [{"smiles": "COc1cc2c(cc1OC)C(=O)C(CC1CCN(Cc3ccccc3)CC1)C2", "note": "(stereo not shown) [Donepezil]", "values": [{"measurement": "spontaneous alternation (%)", "setting": "[1]", "result": 70.5, "unit": "%"}, {"measurement": "Total number of entries", "setting": "[1]; 8 minutes", "result": 61}, {"measurement": "True enter", "setting": "[1]; 8 minutes", "result": 43}, {"measurement": "Retention time", "setting": "[2]; retention trial 24 h after acquisition", "result": 243.5}, {"measurement": "Acquisition time", "setting": "[2]; time to enter dark area, acquisition trial", "result": 77.4}, {"measurement": "effect of promoting NGF production in nerve cell line, in words", "setting": "[3]; SH-SY5Y cells", "result": "did not show the effect of promoting NGF production"}, {"measurement": "NGF (pg/g protein)", "setting": "[3]; differentiated SH-SY5Y cells", "result": 421, "unit": "pg/g protein"}, {"measurement": "NeuN expression / neuroprotective effect (FIG. 1), in words", "setting": "[4]", "result": "failed to show neuroprotective effects"}, {"measurement": "Acquisition time", "setting": "[5]; acquisition trial", "result": 78.4}, {"measurement": "Retention time", "setting": "[5]; retention trial", "result": 244.2}, {"measurement": "Familiar object recognition time", "setting": "[6]", "result": 7.9}, {"measurement": "New object recognition time", "setting": "[6]", "result": 12.9}, {"measurement": "Total object recognition time", "setting": "[6]", "result": 20.8}, {"measurement": "spontaneous alternation (%)", "setting": "[7]", "result": 67.2, "unit": "%"}, {"measurement": "Total number of entries", "setting": "[7]; 8 minutes", "result": 64}, {"measurement": "True enter", "setting": "[7]; 8 minutes", "result": 43}, {"measurement": "Total object recognition on time", "setting": "[8]", "result": 26.8}, {"measurement": "inhibitory effect on tau phosphorylation, in words", "setting": "[9]; SH-SY5Y cells, Aβ42", "result": "did not show any inhibitory effect"}, {"measurement": "Phosphorus tau pg/g protein", "setting": "[9]; differentiated SH-SY5Y cells, Aβ42 48 hours, extracts 10 μg/ml", "result": 1699, "unit": "pg/g protein"}]}]}
